Results published in patent publication US20220280625A1 (Northwestern University, priority 2019, published 2022).
Blank lines part the entries; values can stand above or below the compound they belong to. Bridge positions count the residues as written; N and C are the ends. Square brackets hold non-standard residues; d marks the D form. Ends that are not written are not given here. Peptide text beside a SMILES is read from it. * marks the point of attachment. X1 = O=C1[C@@H]2[C@H](C(=O)N1CCCCCC(=O)*)[C@H]1C=C[C@@H]2C1; d(aIle) = CC[C@H](C)[C@@H](N)C(=O)O

Tests used:
elastase [1] = assay: in vitro; settings: isolated enzyme elastase, pH 7.2
Description: Enzymatic cleavage. Elastase was chosen as a model protease since it can cleave the three glycine fragment for easy recognition of cleavage product which is also similar to the natural initial cleavage product in serum. Remaining peptide percentage was measured by the ratio between the area under the curve at each time point and the area under the curve of the first time point.
Twenty microliters (20 μL) of elastase (1 mM), 20 μL of monomer (FIG. 9A) or polymer (FIG. 9B) (2 mM), 20 μL Tris buffer (250 mM Tris pH 7.2, 1500 mM NaCl, 500 mM CaCl2)) and 140 μL of water were added to a HPLC vial and loaded in the autosampler carousel and a sample immediately taken for injection at 1 min. Subsequently, the reaction was monitored via RP-HPLC (10-80% buffer B) with an injection every 50 minutes following the initial injection.
The ratio of the AUC at each time point relative to the first time point is plotted.

elastase [2] = assay: 20 μL of elastase (1 mM), 20 μL Tris buffer (250 mM Tris pH 7.2, 1500 mM NaCl, 500 mM CaCl2) and 140 μL of water; settings: up to 550 min
[3] = human, in vivo; cited from earlier work
[4] = Systolic blood pressure by tail-cuff system in mice; assay type: in vivo, C57BL/6 mice; settings: intraperitoneal injection, measured for 20 minutes
Description: Healthy C57BL/6 mice were injected with either terlipressin peptide or terlipressin PLP and the systolic blood pressure was measured over time by employing a tail-cuff system (CODA™). The mice were anesthetized with ketamine and placed in restraints over a heated pad. Following 5 minutes of background measurements, the drugs were administrated by intraperitoneal injection (IP) and the measurements continued for another 20 minutes (limited by the effect of ketamine). The delta BP was measured and plotted as a function of time.

thermolysin [5] = biological target: T1, thermolysin (Bacillus thermoproteolyticus, UniProt P00800)
T1 sequence (P00800 233-548): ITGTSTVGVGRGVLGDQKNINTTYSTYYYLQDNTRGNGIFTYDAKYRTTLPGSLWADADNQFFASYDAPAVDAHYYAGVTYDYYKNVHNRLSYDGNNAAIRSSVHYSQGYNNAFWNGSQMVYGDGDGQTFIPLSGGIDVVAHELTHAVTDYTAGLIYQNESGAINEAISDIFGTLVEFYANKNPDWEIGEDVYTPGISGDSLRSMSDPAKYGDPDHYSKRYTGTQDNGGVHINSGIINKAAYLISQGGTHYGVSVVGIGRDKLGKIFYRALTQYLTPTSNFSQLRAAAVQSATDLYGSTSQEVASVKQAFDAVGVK
Description: To discern the relationship between backbone structure and peptide stability against proteolysis, enzyme kinetics of each peptide brush polymer with different backbones were measured in PBS buffer with added protease (i.e., thermolysin).
For enzyme-triggered cleavage experiments, the molar ratio of thermolysin to peptide was set to 1:200. Moreover, the temperature was set to 37° C. […] Then thermolysin (0.1 mg, 3.0 nmol, 1 equiv.) was added into the polymer solution which was stirred in a preheated oil bath at 37° C.

thermolysin [6] = biological target: T1, thermolysin; assay: Enzyme degradation kinetics of ABT898 peptide and PLP with thermolysin (HPLC); assay type: in vitro ADME; settings: 200 μM stock, thermolysin 0.1 μM, over 450 min; PLP = AR PLP (FIG. 26A)
Description: FIGS. 26A-26B. Enzyme degradation kinetics and BLI assay. FIG. 26A. Percent enzymatic cleavage of peptide and PLP (AR PLP) upon the treatment of thermolysin (peptide:enzyme=2000:1) was monitored by HPLC over 450 min. FIG. 26B. Bio-layer interferometry data measuring the binding constant between AR PLP and CD36 receptor.
Enzyme Degradation Kinetics. An important feature of the PLP platform is that the globular structure of peptides arranged on a polymeric scaffold impart high proteolytic resistance. We performed an enzyme resistance assay to confirm that the PLP is resistant to proteolysis as compared to the peptide alone. Both peptide and PLP stock solutions (200 μM) were treated with thermolysin enzyme (0.1 μM) and their degradation profiles were monitored using high performance liquid chromatography (HPLC). […] We calculated the area under the peak at each time point to construct the percent cleaved and plotted it against time for both peptide and PLP (FIG. 26A).

choroidal angiogenesis = assay: Ex vivo choroidal sprouting assay; assay type: cell-based; settings: FIGS. 24B-24D
Description: Ex vivo choroidal sprouting assay. As a first step towards determining the anti-angiogenic properties of the ABT898 PLPs, we performed an ex vivo choroidal sprouting assay. Briefly, eyes are enucleated, dissection is performed to remove the cornea, iris, lens, retina, and vitreous. The peripheral RPE-choroid-sclera complex is plated in Matrigel, angiogenesis develops spontaneously over Day 4-Day 7, and can be quantitated using reverse phase brightfield microscopy (FIG. 24A). ABT898 peptide had no effect upon choroidal angiogenesis (FIGS. 24B and 24C). Alternatively, ABT898 Ester and Amide PLPs, which are not hydrolysable, reduced angiogenesis by 24% and 81%, respectively. Cell penetrating peptides that are rich in arginine residues, aid the cellular penetration of cargo via endocytosis. In order to enhance the cellular penetration capacity and the solubility of the PLPs we modified the C-terminus with arginine moieties. […] Without wishing to be bound by any particular theory, we believe this is because the peptide alone is degraded in the Matrigel milieu. […] In addition, we performed a dose dependent analysis of growth area at Day 4 for treatment with ABT898 amide RR PLP, and the results are shown in FIG. 25.
Ex Vivo Choroidal Sprouting Assay: Anti-VEGF PLPs. […]

remaining at 550 min, 0.2 mM (elastase [1]): ~50%
Compound: NCCCC[C@H](NC(=O)[C@@H]1CCCN1C(=O)[C@@H]1CSSC[C@H](NC(=O)CNC(=O)CNC(=O)CNC(=O)CCCCCN2C(=O)[C@@H]3[C@H](C2=O)[C@H]2C=C[C@@H]3C2)C(=O)N[C@@H](Cc2ccc(O)cc2)C(=O)N[C@@H](Cc2ccccc2)C(=O)N[C@@H](CCC(N)=O)C(=O)N[C@@H](CC(N)=O)C(=O)N1)C(=O)NCC(N)=O [terlipressin peptide monomer] (X1-GGGCYFQNCPKG-NH2; disulfide 4-9)

cleaved bond (elastase [2]): G-C
Compound: GGGCYFQNCPKG

Compound: NCCCC[C@H](NC(=O)[C@@H]1CCCN1C(=O)[C@@H]1CSSC[C@H](NC(=O)CNC(=O)CNC(=O)CN)C(=O)N[C@@H](Cc2ccc(O)cc2)C(=O)N[C@@H](Cc2ccccc2)C(=O)N[C@@H](CCC(N)=O)C(=O)N[C@@H](CC(N)=O)C(=O)N1)C(=O)NCC(N)=O [terlipressin, Terlipressin] (H-GGGCYFQNCPKG-NH2; disulfide 4-9)
distribution half-life [3]: 8 min
elimination half-life [3]: 6 min
change in systolic blood pressure over time (delta BP) [4]: immediate and very large increase in blood pressure, which dropped rapidly in a manner of few minutes

Compound: poly(PepNorIm15): peptide brush polymer of GPLGLAGGWGERDGS norbornene dicarboxyimide monomer, DP 15 (also: peptide is a side chain of a norbornene dicarboxyimide brush polymer, DP 15)
proteolytic stability against thermolysin (thermolysin [5]): demonstrated resistance to proteolysis

Compound: ABT898 peptide: synthetic peptide GVi(allo)SQIRP which mimics the TSP1 type-1 repeat (GV[d(aIle)]SQIRP) [reference compound]
degradation by thermolysin (HPLC peak over time) (thermolysin [6]): rapid degradation
effect upon choroidal angiogenesis (choroidal angiogenesis): no effect
